Holding throughout (type): biochemical
The target in one experiment is T1, human SIRT5 (Homo sapiens, UniProt Q9NXA8).
T1 sequence (Q9NXA8 37-310): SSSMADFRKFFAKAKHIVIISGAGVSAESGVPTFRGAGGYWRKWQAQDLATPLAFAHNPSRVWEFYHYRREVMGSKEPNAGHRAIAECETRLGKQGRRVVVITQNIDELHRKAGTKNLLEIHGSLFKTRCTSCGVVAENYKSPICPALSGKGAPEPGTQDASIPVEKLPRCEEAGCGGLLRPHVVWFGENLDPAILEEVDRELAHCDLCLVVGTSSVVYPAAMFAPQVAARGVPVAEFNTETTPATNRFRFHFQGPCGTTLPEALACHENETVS
Nature of the experiment: Trypsin coupled fluorescence-based inhibition assay, SIRT5. The following applies: for fold increased potency against SIRT5 in comparison with 11: more potent than hit 11.

The next experiment deals with T2, human SIRT1 (Homo sapiens, UniProt Q96EB6).
T2 sequence (Q96EB6 1-747): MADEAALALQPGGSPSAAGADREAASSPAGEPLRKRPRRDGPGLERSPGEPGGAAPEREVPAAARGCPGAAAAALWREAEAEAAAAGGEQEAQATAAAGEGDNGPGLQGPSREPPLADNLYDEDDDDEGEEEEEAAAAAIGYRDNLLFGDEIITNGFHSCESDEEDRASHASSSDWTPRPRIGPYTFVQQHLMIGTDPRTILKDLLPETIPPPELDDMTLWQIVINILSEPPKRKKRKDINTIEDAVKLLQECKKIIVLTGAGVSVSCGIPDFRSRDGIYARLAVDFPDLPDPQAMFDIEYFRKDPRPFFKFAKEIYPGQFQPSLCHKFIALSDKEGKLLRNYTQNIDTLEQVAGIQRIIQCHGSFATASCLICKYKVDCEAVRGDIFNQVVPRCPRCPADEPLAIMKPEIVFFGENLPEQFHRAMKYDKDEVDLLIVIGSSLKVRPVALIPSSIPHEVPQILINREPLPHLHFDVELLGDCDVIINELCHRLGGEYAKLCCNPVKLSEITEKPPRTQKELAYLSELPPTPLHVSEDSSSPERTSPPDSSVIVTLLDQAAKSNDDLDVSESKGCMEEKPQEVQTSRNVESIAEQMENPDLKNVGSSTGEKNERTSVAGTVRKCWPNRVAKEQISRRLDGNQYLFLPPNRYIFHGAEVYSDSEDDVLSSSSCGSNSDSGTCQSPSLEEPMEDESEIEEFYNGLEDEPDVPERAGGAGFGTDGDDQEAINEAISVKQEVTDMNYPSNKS
Briefly: Fluorescence-based inhibition assay, SIRT1. The settings on record: at the highest concentration of 400 μM.

Another experiment has as its target T3, human SIRT2 (Homo sapiens, UniProt Q8IXJ6).
T3 sequence (Q8IXJ6 1-389): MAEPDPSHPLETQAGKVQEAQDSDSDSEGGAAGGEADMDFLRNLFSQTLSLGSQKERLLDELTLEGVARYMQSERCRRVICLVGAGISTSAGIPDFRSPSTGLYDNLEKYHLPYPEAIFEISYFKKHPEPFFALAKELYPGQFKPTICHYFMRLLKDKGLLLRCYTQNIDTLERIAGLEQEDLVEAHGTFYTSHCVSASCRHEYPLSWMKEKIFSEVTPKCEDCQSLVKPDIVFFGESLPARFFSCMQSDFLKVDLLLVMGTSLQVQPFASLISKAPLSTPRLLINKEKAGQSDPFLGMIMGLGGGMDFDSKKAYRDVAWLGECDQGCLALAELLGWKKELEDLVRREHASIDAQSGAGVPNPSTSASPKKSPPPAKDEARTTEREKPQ
Briefly: Fluorescence-based inhibition assay, SIRT2. The settings on record: at the highest concentration of 400 μM.

The target of the next experiment is T4, human SIRT3 (Homo sapiens, UniProt Q9NTG7).
T4 sequence (Q9NTG7 1-399): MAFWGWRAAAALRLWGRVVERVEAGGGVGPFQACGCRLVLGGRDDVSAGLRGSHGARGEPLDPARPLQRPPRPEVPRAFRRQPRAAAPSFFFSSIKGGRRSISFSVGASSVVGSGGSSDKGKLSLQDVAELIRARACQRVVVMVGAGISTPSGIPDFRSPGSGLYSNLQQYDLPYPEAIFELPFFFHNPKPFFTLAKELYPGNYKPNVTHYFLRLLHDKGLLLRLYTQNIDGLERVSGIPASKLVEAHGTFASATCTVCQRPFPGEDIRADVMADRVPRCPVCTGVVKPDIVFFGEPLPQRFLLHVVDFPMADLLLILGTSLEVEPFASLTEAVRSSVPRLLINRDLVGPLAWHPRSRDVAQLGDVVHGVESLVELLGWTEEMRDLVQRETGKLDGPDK
Briefly: Fluorescence-based inhibition assay, SIRT3. The settings on record: at the highest concentration of 400 μM.

Regarding `CC(=O)Nc1ccc(-c2csc(Nc3ccc(C(=O)O)cc3)n2)cc1` [Compound 13, 4-((4-(4-acetamidophenyl)thiazol-2-yl)amino)benzoic acid], on human SIRT5 (less potent than hit 11), the “fold less potent than 11 against SIRT5” value is listed as “about 8 fold”.
Regarding `O=C(O)c1ccc(NC(=S)Nc2nc(-c3ccc([N+](=O)[O-])cc3)cs2)cc1O` [Compound 30, 2-hydroxy-4-(3-(4-(4-nitrophenyl)thiazol-2-yl)thioureido)benzoic acid], the “fold increased potency against SIRT5 in comparison with 11” value (“fold increased potency against SIRT5” for short) at human SIRT5 amounted to 6 fold.
In the case of `CC(=O)Nc1ccc(-c2csc(Nc3ccc(C(=O)O)c(O)c3)n2)cc1` [Compound 11, 4-((4-(4-acetamidophenyl)thiazol-2-yl)amino)-2-hydroxybenzoic acid], the “inhibition against SIRT1” value on human SIRT1 was “no inhibitions”. For the same molecule, the “inhibition against SIRT2” value at human SIRT2 is reported as “no inhibitions”. Besides, at human SIRT3, the “inhibition against SIRT3” value is “no inhibitions”.
`CC(=O)Nc1ccc(-c2csc(NC(=S)Nc3ccc(C(=O)O)c(O)c3)n2)cc1` [Compound 14, 4-(3-(4-(4-acetamidophenyl)thiazol-2-yl)thioureido)-2-hydroxybenzoic acid]: at human SIRT5, the “fold increased potency against SIRT5” value is recorded as 2 fold. For the same molecule, the “inhibition against SIRT1” value on human SIRT1 was “no inhibition”. In addition, on human SIRT2, the “inhibition against SIRT2” value was “no inhibition”. Moreover, the “inhibition against SIRT3” value against human SIRT3 is reported as “no inhibition”.
Consider `O=C(O)c1ccc(NC(=S)Nc2nc(-c3ccc([N+](=O)[O-])c(S(=O)(=O)NCc4ccccc4)c3)cs2)cc1O` [Compound 43, 4-(3-(4-(3-(N-benzylsulfamoyl)-4-nitrophenyl)thiazol-2-yl)thioureido)-2-hydroxybenzoic acid], for which the “fold increased potency against SIRT5” value at human SIRT5 came to 10 fold. Moreover, the “inhibition against SIRT1” value on human SIRT1 is reported as “no inhibition”. For the same molecule, at human SIRT2, the “inhibition against SIRT2” value is “no inhibition”. The “inhibition against SIRT3” value at human SIRT3 is on record as “no inhibition”.
